# In US9073935B2, “Substituted benzylspiroindolin-2-one analogs as positive allosteric modulators of the muscarinic acetylcholine receptor M1” (VANDERBILT UNIVERSITY, priority 2011, dated 2015):
# Read-outs that look alike come from different tables or passages of the source.
# Target: T1, mAChR M1 (UniProt P11229)
# T1 sequence (P11229 1-460): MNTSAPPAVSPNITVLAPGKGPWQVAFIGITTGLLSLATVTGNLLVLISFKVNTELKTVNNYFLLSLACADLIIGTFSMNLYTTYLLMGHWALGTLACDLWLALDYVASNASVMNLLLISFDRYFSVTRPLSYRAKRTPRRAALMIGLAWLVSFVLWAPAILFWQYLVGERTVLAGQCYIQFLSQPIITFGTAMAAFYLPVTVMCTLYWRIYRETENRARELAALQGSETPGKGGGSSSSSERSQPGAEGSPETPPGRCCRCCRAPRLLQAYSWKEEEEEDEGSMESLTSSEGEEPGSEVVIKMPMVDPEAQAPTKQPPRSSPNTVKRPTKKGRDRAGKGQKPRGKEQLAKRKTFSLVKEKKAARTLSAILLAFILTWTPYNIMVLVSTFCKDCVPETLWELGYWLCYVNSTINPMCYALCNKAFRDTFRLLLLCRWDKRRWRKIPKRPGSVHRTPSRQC
# Test: mAChR M1 cell-based functional assay (calcium mobilization, potentiation of EC20 acetylcholine response)
# Settings: for EC50: CHO-K1 cells expressing mAChR M1, increase in EC20 acetylcholine response, >10 μM estimated where no plateau in the curve
# Experimental: Chinese hamster ovary (CHO-K1) cells stably expressing rat (r)M1 were purchased from the American Type Culture Collection and cultured according to their indicated protocol. […] To make stable rM2, hM2, rM3, hM4, and rM4 cell lines for use in calcium mobilization assays, these cells also were stably transfected with a chimeric G-protein (Gqi5) (provided by B. R. Conklin, University of California, San Francisco) using Lipofectamine 2000. rM1, hM1, rM3, hM3, rM5, and hM5 cells were grown in Ham's F-12 medium containing 10% heat-inactivated fetal bovine serum (FBS), 20 mM HEPES, and 50 μg/mL G418 sulfate. rM2-Gqi5, hM2-Gqi5, and hM4-Gqi5 cells were grown in the same medium also containing 500 μg/mL Hygromycin B. Stable rM4-Gqi5 cells were grown in DMEM containing 10% heat-inactivated FBS, 20 mM HEPES, 400 μg/mL G418 sulfate, and 500 μg/mL Hygromycin B.
# For high throughput measurement of agonist-evoked increases in intracellular calcium, CHO-K1 cells stably expressing muscarinic receptors were plated in growth medium lacking G418 and hygromycin at 15,000 cells/20 μL/well in Greiner 384-well black-walled, tissue culture (TC)-treated, clear-bottom plates (VWR). Cells were incubated overnight at 37° C. and 5% CO2. […] Compound master plates were formatted in an 11 point CRC format (1:3 dilutions) in 100% DMSO with a starting concentration of 10 mM using the BRAVO liquid handler (Agilent). Test compound CRCs were then transferred to daughter plates ([…]) using the Echo acoustic plate reformatter (Labcyte, Sunnyvale, Calif.) and then diluted into assay buffer (40 μL) to a 2× stock using a Thermo Fisher Combi (Thermo Fisher Scientific, Waltham, Mass.).
# Calcium flux was measured using the Functional Drug Screening System (FDSS) 6000 (Hamamatsu Corporation, Tokyo, Japan) as an increase in the fluorescent static ratio. Compounds were applied to cells (20 μL, 2×) using the automated system of the FDSS 6000 at 4 s into the 300 s protocol and the data were collected at 1 Hz. […] Agonist activity was analyzed as a concentration-dependent increase in calcium mobilization upon compound addition. Positive allosteric modulator activity was analyzed as a concentration-dependent increase in the EC20 acetylcholine response. Antagonist activity was analyzed as a concentration-dependent decrease in the EC80 acetylcholine response. Concentration-response curves were generated using a four-parameter logistical equation in XLfit curve fitting software (IDBS, Bridgewater, N.J.) for Excel (Microsoft, Redmond, Wash.) or Prism (GraphPad Software, Inc., San Diego, Calif.).
# The calcium mobilization assay was also used to determine “efficacy”. In the context of the assays carried out for the data in Table II, “efficacy” (% ACh at 30 μM) is defined as the maximal response in the calcium flux as determined by the sigmoidal curve fit of the concentration response curve, or in the absence of an acceptable curve fit, the response recorded at 30 μM test compound, stated as a percentage of the response elicited by a concentration of Ach that induces approximately 80% of a maximal (i.e. saturating) ACh response.
# Substituted benzylspiroindolin-2-one analogs were synthesized as described above. Activity (EC50 and Emax) was determined in the mAChR M1 cell-based functional assay as described above and the data are shown in Table III. The compound number corresponds to the compound numbers used in Tables I and II.
Structure (SMILES),Emax [%],EC50 [µM],Emax (% ACh maximum at 30 μM) [%]
"Cn1cc(-c2ccc(CN3C(=O)C4(CCN(CC(F)F)C4)c4ccccc43)c(F)c2)cn1 (stereo not drawn) [Compound B26, 1′-(2,2-difluoroethyl)-1-(2-fluoro-4-(1-methyl-1H-pyrazol-4-yl)benzyl)spiro[indoline-3,3′-pyrrolidin]-2-one]",53,3.4,–
CN1CCC(N2CCC3(C2)C(=O)N(Cc2ccc(-c4cnn(C)c4)cc2F)c2ccccc23)CC1 (stereo not drawn) [Compound B27],–,3.5,63
Cn1cc(-c2ccc(CN3C(=O)C4(CCN(C5COC5)C4)c4ccccc43)c(F)c2)cn1 (stereo not drawn) [Compound B28],–,3.7,57
Cn1cc(-c2ccc(CN3C(=O)C4(CCN(C5CCCSC5)CC4)c4ccccc43)c(F)c2)cn1 (stereo not drawn) [Compound B29],–,3.7,42
Cc1nn(C)cc1-c1ccc(CN2C(=O)C3(CCN(C4CCCC4)C3)c3ccccc32)c(F)c1 (stereo not drawn) [Compound B30],–,3.7,51
CCCn1cc(-c2ccc(CN3C(=O)C4(CCN(C5CCCC5)C4)c4ccccc43)c(F)c2)cn1 (stereo not drawn) [Compound B32],–,3.8,41
Cn1cc(-c2ccc(CN3C(=O)C4(CCN(C5CCNC5)CC4)c4ccccc43)c(F)c2)cn1 (stereo not drawn) [Compound B33],–,3.9,52
CN1CCC2(CC1)C(=O)N(Cc1ccc(-c3cnn(C)c3)cc1F)c1ccccc12 [Compound B36],–,4,48
CC(C)N1CCC2(C1)C(=O)N(Cc1ccc(-c3cnn(C)c3)cc1F)c1ccccc12 (stereo not drawn) [Compound B37],–,4.4,32
Cn1cc(-c2ccc(CN3C(=O)C4(CCN(C5CCCOC5)CC4)c4ccccc43)c(F)c2)cn1 (stereo not drawn) [Compound B38],–,4.7,50
CN1CCC(N2CCC3(CC2)C(=O)N(Cc2ccc(-c4cnn(C)c4)cc2F)c2ccccc23)C1 (stereo not drawn) [Compound B39],–,4.7,55
Cn1cc(-c2ccc(CN3C(=O)C4(CCN(C5CCSCC5)CC4)c4ccccc43)c(F)c2)cn1 [Compound B40],–,4.7,38
Cn1cc(-c2ccc(CN3C(=O)C4(CCN(C(=O)C5CC5)C4)c4ccccc43)c(F)c2)cn1 (stereo not drawn) [Compound B41],–,4.9,56
Cn1cc(-c2ccc(CN3C(=O)C4(CCN(C5CCSC5)CC4)c4ccccc43)c(F)c2)cn1 (stereo not drawn) [Compound B42],–,4.9,51
Cn1cc(-c2ccc(CN3C(=O)C4(CCN(C5CCCNC5)CC4)c4ccccc43)c(F)c2)cn1 (stereo not drawn) [Compound B43],–,5,48
CC(C)N1CCC(N2CCC3(C2)C(=O)N(Cc2ccc(-c4cnn(C)c4)cc2F)c2ccccc23)CC1 (stereo not drawn) [Compound B44],–,5,49
Cn1cc(-c2ccc(CN3C(=O)C4(CCN(C5CCCC5)CC4)c4ccccc43)c(F)c2)cn1 [Compound B46],–,5.5,34
CN1CCC(N2CCC3(CC2)C(=O)N(Cc2ccc(-c4cnn(C)c4)cc2F)c2ccccc23)CC1 [Compound B48],–,5.9,51
CC(C)CN1CCC2(C1)C(=O)N(Cc1ccc(-c3cnn(C)c3)cc1F)c1ccccc12 (stereo not drawn) [Compound B49],–,6,69
Cn1cc(-c2ccc(CN3C(=O)C4(CCN(C5CNC5)C4)c4ccccc43)c(F)c2)cn1 (stereo not drawn) [Compound B50],–,6,58

Structure (SMILES),Emax [%],EC50 [µM],Emax (% ACh maximum at 30 μM) [%]
Cn1cc(-c2ccc(CN3C(=O)C4(CCN(C(=O)C5CCC5)C4)c4ccccc43)c(F)c2)cn1 (stereo not drawn) [Compound B51],–,6.2,50
CC1CCC(N2CCC3(C2)C(=O)N(Cc2ccc(-c4cnn(C)c4)cc2F)c2ccccc23)CC1 (stereo not drawn) [Compound B52],–,6.7,46
CN1CCCC(N2CCC3(CC2)C(=O)N(Cc2ccc(-c4cnn(C)c4)cc2F)c2ccccc23)C1 (stereo not drawn) [Compound B53],–,6.7,57
CC1CCCC1N1CCC2(C1)C(=O)N(Cc1ccc(-c3cnn(C)c3)cc1F)c1ccccc12 (stereo not drawn) [Compound B54],–,7,51
Cn1cc(-c2ccc(CN3C(=O)C4(CCN(C5COC5)CC4)c4ccccc43)c(F)c2)cn1 [Compound B55],–,7,45
"Cn1cc(-c2ccc(CN3C(=O)C4(CCCO4)c4ccccc43)cc2)cn1 (stereo not drawn) [Compound B56, 1′-(4-(1-methyl-1H-pyrazol-4-yl)benzyl)-4,5-dihydro-3H-spiro[furan-2,3′-indolin]-2′-one]",–,7.8,45
Cn1cc(-c2ccc(CN3C(=O)C4(CCN(Cc5ccccc5)C4)c4ccccc43)c(F)c2)cn1 (stereo not drawn) [Compound B57],–,> 10,36
Cn1cc(-c2ccc(CN3C(=O)C4(CCN(C5CCC(F)(F)CC5)C4)c4ccccc43)c(F)c2)cn1 (stereo not drawn) [Compound B59],–,> 10,53
CC1CCCCC1N1CCC2(C1)C(=O)N(Cc1ccc(-c3cnn(C)c3)cc1F)c1ccccc12 (stereo not drawn) [Compound B60],–,> 10,39
Cn1cc(-c2ccc(CN3C(=O)C4(CCN(CC5CCCCC5)C4)c4ccccc43)c(F)c2)cn1 (stereo not drawn) [Compound B61],–,> 10,36
Cn1cc(-c2ccc(CN3C(=O)C4(CCN(C(=O)C5CCCCC5)C4)c4ccccc43)c(F)c2)cn1 (stereo not drawn) [Compound B62],–,> 10,54
"CC(=O)N1CCC2(C1)C(=O)N(Cc1ccc(-c3cnn(C)c3)cc1F)c1ccccc12 (stereo not drawn) [Compound B63, 1′-acetyl-1-(2-fluoro-4-(1-methyl-1H-pyrazol-4-yl)benzyl)spiro[indoline-3,3′-pyrrolidin]-2-one]",–,> 10,54
"CN1CCCC12C(=O)N(Cc1ccc(-c3cnn(C)c3)cc1)c1ccccc12 (stereo not drawn) [Compound B64, 1′-methyl-1-(4-(1-methyl-1H-pyrazol-4-yl)benzyl)spiro[indoline-3,2′-pyrrolidin]-2-one]",–,> 10,48
"Cn1cc(-c2ccc(CN3C(=O)C4(CCN(S(C)(=O)=O)C4)c4ccccc43)c(F)c2)cn1 (stereo not drawn) [Compound B65, 1-(2-fluoro-4-(1-methyl-1H-pyrazol-4-yl)benzyl)-1′-(methylsulfonyl)spiro[indoline-3,3′-pyrrolidin]-2-one]",–,> 10,35
Cn1cc(-c2ccc(CN3C(=O)C4(CCN(C5CCC5)CC4)c4ccccc43)c(F)c2)cn1 [Compound B66],–,> 10,32
Cn1cc(-c2ccc(CN3C(=O)C4(CCN(C5CCOCC5)CC4)c4ccccc43)c(F)c2)cn1 [Compound B69],–,> 10,41
Cn1cc(-c2ccc(CN3C(=O)C4(CCN(C5CCOC5)CC4)c4ccccc43)c(F)c2)cn1 (stereo not drawn) [Compound B71],–,> 10,36
Cn1cc2c(-c3cc(F)c(CN4C(=O)C5(CCNC5)c5ccccc54)c(F)c3)cccc2n1 (stereo not drawn) [Compound B74],–,7.2,69
CN1CCC2(C1)C(=O)N(Cc1c(F)cc(-c3cccc4nn(C)cc34)cc1F)c1ccccc12 (stereo not drawn) [Compound B75],–,5.4,66
